Where two headings read alike, the source gives them in different places.
Assays:
[1] = molecular target: T1, human CA-XII (Homo sapiens, UniProt O43570); assay: Surface Plasmon Resonance (SPR) binding kinetics to recombinant human CA-XII (Biacore 8K, single-cycle kinetics, 1:1 binding model)
T1 construct: purchased Creative BioMart CA12-261H
Summary of the method: (§1)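 Using captured protein at 1200-1800 RU, we injected compound at 100-0.39 nM in 1% DMSO buffer, pH 7.4, 25° C, then corrected curves for reference and DMSO to obtain rate constants.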

[2] = molecular target: T2, human CA-IX (Homo sapiens, UniProt Q16790); assay: Surface Plasmon Resonance (SPR) binding kinetics to recombinant human CA-IX (Biacore 8K, single-cycle kinetics, 1:1 binding model)
T2 construct: purchased Acro CA9-H82E3
Summary of the method: as §1

[3] = Chelated Metal: Lu-175, 25° C., pH 7.4, read-out: CAXII KD
[4] = Chelated Metal: Lu-175; SPR, 25° C., pH 7.4; read-out: CAIX KD

T1 sequence (O43570 25-354): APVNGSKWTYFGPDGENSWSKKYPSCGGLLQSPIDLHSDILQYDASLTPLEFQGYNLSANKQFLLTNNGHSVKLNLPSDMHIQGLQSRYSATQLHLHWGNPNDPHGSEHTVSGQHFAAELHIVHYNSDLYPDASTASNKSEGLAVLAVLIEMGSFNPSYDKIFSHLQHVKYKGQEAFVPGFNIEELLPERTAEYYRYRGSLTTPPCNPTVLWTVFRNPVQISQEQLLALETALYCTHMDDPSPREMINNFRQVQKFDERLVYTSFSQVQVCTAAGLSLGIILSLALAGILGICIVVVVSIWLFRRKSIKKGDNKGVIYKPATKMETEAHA

CC(CCCC(=O)N1CCC(C(=O)O)(C(=O)NCC(=O)NC2(C(=O)NCCn3cc(C45CC(C(=O)Nc6nnc(S(N)(=O)=O)s6)(C4)C5)nn3)CCN(C(=O)CN3CCN(CC(=O)O)CCN(CC(=O)O)CCN(CC(=O)O)CC3)CC2)CC1)(c1ccc(O)cc1)c1ccc(O)cc1.[Lu+3] (single isomer, unassigned) [Compound 117.4]
Kd [1, 3]: > 10 nM | Kd [2, 4]: 1 to 2.5 nM

CC(CCCC(=O)N1CCOC[C@H]1C(=O)N[C@@H](CC(=O)N1CCN(C(=O)CCOCCOCCOCCOCCN(CCOCCOCCOCCOCCC(=O)N2CCN(C(=O)C[C@H](NC(=O)[C@@H]3COCCN3C(=O)CCCC(C)(c3ccc(O)cc3)c3ccc(O)cc3)C(N)=O)[C@@H](C(=O)NCCn3cc(C45CC(C(=O)Nc6nnc(S(N)(=O)=O)s6)(C4)C5)nn3)C2)C(=O)CNC(=O)CN2CCN(CC(=O)O)CCN(CC(=O)O)CCN(CC(=O)O)CC2)C[C@@H]1C(=O)NCCn1cc(C23CC(C(=O)Nc4nnc(S(N)(=O)=O)s4)(C2)C3)nn1)C(N)=O)(c1ccc(O)cc1)c1ccc(O)cc1.[Lu+3] [Compound 131.6]
Kd [1, 3]: 1 to 2.5 nM | Kd [2, 4]: < 1 nM

CC(CCC(=O)N[C@@H](CC(=O)N[C@@H](Cc1cn([C@@H](CCCCn2cc(C34CC(C(=O)Nc5nnc(S(N)(=O)=O)s5)(C3)C4)nn2)C(=O)NCCOCCOCCNC(=O)CN2CCN(CC(=O)O)CCN(CC(=O)O)CCN(CC(=O)O)CC2)nn1)C(=O)O)C(=O)O)(c1ccc(O)cc1)c1ccc(O)cc1.[Lu+3] [Compound 101.2]
Kd [1, 3]: 2.5 to 10 nM | Kd [2, 4]: < 1 nM

NS(=O)(=O)c1nnc(NC(=O)C23CC(c4cn(CCNC(=O)[C@H]5CN(C(=O)CN6CCN(CC(=O)O)CCN(CC(=O)O)CCN(CC(=O)O)CC6)CCN5C(=O)[C@@H]5COCCN5C(=O)Cc5n[nH]c6ccccc56)nn4)(C2)C3)s1.[Lu+3] [Compound 107.18]
Kd [1, 3]: > 10 nM | Kd [2, 4]: 2.5 to 10 nM

NS(=O)(=O)c1nnc(NC(=O)C23CCC(c4cn(CCNC(=O)[C@@H]5CN(C(=O)CN6CCN(CC(=O)O)CCN(CC(=O)O)CCN(CC(=O)O)CC6)CCN5C(=O)CC[C@H](NC(=O)C[C@H](NC(=O)c5ccc(C6CC6)cc5)C(=O)O)C(=O)O)nn4)(CC2)CC3)s1.[Lu+3] [Compound 109.54]
Kd [1, 3]: < 1 nM | Kd [2, 4]: < 1 nM

CC(CCC(=O)N[C@@H](CC(=O)N[C@@H](CCC(=O)N1CCN(C(=O)CN2CCN(CC(=O)O)CCN(CC(=O)O)CCN(CC(=O)O)CC2)C[C@@H]1C(=O)NCCn1cc(C23CC(C(=O)Nc4nnc(S(N)(=O)=O)s4)(C2)C3)nn1)C(=O)O)C(=O)O)(c1ccc(O)cc1)c1ccc(O)cc1.[Lu+3] [Compound 107.13]
Kd [1, 3]: > 10 nM | Kd [2, 4]: 1 to 2.5 nM

NS(=O)(=O)c1nnc(NC(=O)C23CC(c4cn(CCNC(=O)[C@@H]5CN(C(=O)CN6CCN(CC(=O)O)CCN(CC(=O)O)CCN(CC(=O)O)CC6)CCN5C(=O)CNC(=O)C5(C(=O)O)CCN(C(=O)CC6CC7(CCC7)C6)CC5)nn4)(C2)C3)s1.[Lu+3] [Compound 112.8]
Kd [1, 3]: 2.5 to 10 nM | Kd [2, 4]: < 1 nM

NS(=O)(=O)c1nnc(NC(=O)C23CC(c4cn(CCNC(=O)[C@@H]5CN(C(=O)CN6CCN(CC(=O)O)CCN(CC(=O)O)CCN(CC(=O)O)CC6)CCN5C(=O)C[C@H](NC(=O)C[C@H](NC(=O)Cn5nc(-c6ccc(O)cc6)c6ccc(O)cc65)C(=O)O)C(=O)O)nn4)(C2)C3)s1.[Lu+3] [Compound 109.34]
Kd [1, 3]: 2.5 to 10 nM | Kd [2, 4]: < 1 nM

CC(CCCC(=O)N1CCC(C(N)=O)(C(=O)NCC(=O)NC2(C(=O)N[C@@H](Cn3cc(C45CC(C(=O)Nc6nnc(S(N)(=O)=O)s6)(C4)C5)nn3)C(=O)O)CCN(C(=O)CN3CCN(CC(=O)O)CCN(CC(=O)O)CCN(CC(=O)O)CC3)CC2)CC1)(c1ccc(O)cc1)c1ccc(O)cc1.[Lu+3] [Compound 134]
Kd ([1]; read-out: CAXII KD, Chelated Metal: Lu-175, 25° C., pH 7.4): > 10 nM | Kd ([2]; read-out: CAIX KD; Chelated Metal: Lu-175; SPR, 25° C., pH 7.4): < 1 nM

NS(=O)(=O)c1nnc(NC(=O)C23CC(c4cn(CCNC(=O)[C@@H]5CN(C(=O)CN6CCN(CC(=O)O)CCN(CC(=O)O)CCN(CC(=O)O)CC6)CCN5C(=O)C[C@H](NC(=O)C[C@H](NC(=O)c5n[nH]c6ccccc56)C(=O)O)C(=O)O)nn4)(C2)C3)s1.[Lu+3] [Compound 109.7]
Kd [1, 3]: 2.5 to 10 nM | Kd [2, 4]: < 1 nM

CC(CCCC(=O)N1CCCC[C@H]1C(=O)N[C@@H](CC(=O)N1CCN(C(=O)CN2CCN(CC(=O)O)CCN(CC(=O)O)CCN(CC(=O)O)CC2)C[C@@H]1C(=O)NCCn1cc(C23CC(C(=O)Nc4nnc(S(N)(=O)=O)s4)(C2)C3)nn1)C(=O)O)(c1ccc(O)cc1)c1ccc(O)cc1.[Lu+3] [Compound 109.40]
Kd [1, 3]: > 10 nM | Kd [2, 4]: < 1 nM

NS(=O)(=O)c1nnc(NC(=O)C23CCC(c4cn(CCNC(=O)[C@@H]5CN(C(=O)CN6CCN(CC(=O)O)CCN(CC(=O)O)CCN(CC(=O)O)CC6)CCN5C(=O)CC[C@H](NC(=O)C[C@H](NC(=O)Cc5[nH]nc6ccc(O)cc56)C(=O)O)C(=O)O)nn4)(CC2)CC3)s1.[Lu+3] [Compound 109.41]
Kd [1, 3]: < 1 nM | Kd [2, 4]: < 1 nM

CC(CCC(=O)N[C@@H](CC(=O)N[C@@H](CC(=O)N1CCN(C(=O)CN2CCN(CC(=O)O)CCN(CC(=O)O)CCN(CC(=O)O)CC2)C[C@H]1C(=O)NCCn1cc(-c2ccc(-c3cn4nc(S(N)(=O)=O)sc4n3)cc2)nn1)C(=O)O)C(=O)O)(c1ccc(O)cc1)c1ccc(O)cc1.[Lu+3] [Compound 107.28]
Kd [1, 3]: < 1 nM | Kd [2, 4]: < 1 nM

CC(CC(=O)N1CCC(C(=O)O)(C(=O)NCC(=O)N[C@@H](CCCCn2cc(CCCC(=O)Nc3nnc(S(N)(=O)=O)s3)nn2)C(=O)NCCOCCOCCNC(=O)CN2CCN(CC(=O)O)CCN(CC(=O)O)CCN(CC(=O)O)CC2)CC1)(c1ccc(O)cc1)c1ccc(O)cc1.[Lu+3] [Compound 102.4]
Kd [1, 3]: 2.5 to 10 nM | Kd [2, 4]: < 1 nM

CC1(c2ccc(C(=O)N[C@@H](CC(=O)N[C@@H](CC(=O)N3CCN(C(=O)CN4CCN(CC(=O)O)CCN(CC(=O)O)CCN(CC(=O)O)CC4)C[C@H]3C(=O)NCCn3cc(C45CC(C(=O)Nc6nnc(S(N)(=O)=O)s6)(C4)C5)nn3)C(=O)O)C(=O)O)cc2)CC1.[Lu+3] [Compound 109.22]
Kd [1, 3]: 2.5 to 10 nM | Kd [2, 4]: 1 to 2.5 nM

NS(=O)(=O)c1nnc(NC(=O)CCCc2nnn(CCCC[C@H](NC(=O)C[C@H](Nc3cc(NC(=O)c4n[nH]c5ccc(O)cc45)cc(C(=O)O)c3)C(=O)O)C(=O)NCCOCCOCCNC(=O)CN3CCN(CC(=O)O)CCN(CC(=O)O)CCN(CC(=O)O)CC3)c2C(=O)O)s1.[Lu+3] [Compound 102.8]
Kd [1, 3]: 1 to 2.5 nM | Kd [2, 4]: < 1 nM

NS(=O)(=O)c1nnc(NC(=O)C23CC(c4cn(CCNC(=O)[C@@H]5CN(C(=O)CN6CCN(CC(=O)O)CCN(CC(=O)O)CCN(CC(=O)O)CC6)CCN5C(=O)C[C@H](Nc5ncc(C(=O)NCc6ccc(C(F)F)cc6)cn5)C(=O)O)nn4)(C2)C3)s1.[Lu+3] [Compound 111.6]
Kd [1, 3]: > 10 nM | Kd [2, 4]: 2.5 to 10 nM

CC(CCCC(=O)N1CCC(C(N)=O)(C(=O)NCC(=O)N2CCN(C(=O)CCC(C(=O)O)N3CCN(CC(=O)O)CCN(CC(=O)O)CC3)C[C@@H]2C(=O)NCCn2cc(C34CC(C(=O)Nc5nnc(S(N)(=O)=O)s5)(C3)C4)nn2)CC1)(c1ccc(O)cc1)c1ccc(O)cc1.[Cu+2] (some centres unmarked) [Compound 127.3]
Kd ([1]; Chelated Metal: Cu (cold), 25° C., pH 7.4, read-out: CAXII KD): > 10 nM | Kd ([2]; Chelated Metal: Cu (cold); SPR, 25° C., pH 7.4; read-out: CAIX KD): < 1 nM

CC(CCC(=O)N[C@@H](CC(=O)N[C@@H](CC(=O)N[C@@H](CCCn1cc(C2CCC(C(=O)Nc3nnc(S(N)(=O)=O)s3)CC2)nn1)C(=O)NCCOCCOCCNC(=O)CN1CCN(CC(=O)O)CCN(CC(=O)O)CCN(CC(=O)O)CC1)C(=O)O)C(=O)O)(c1ccc(O)cc1)c1ccc(O)cc1.[Lu+3] (some centres unmarked) [Compound 100.3]
Kd [1, 3]: 2.5 to 10 nM | Kd [2, 4]: < 1 nM

NS(=O)(=O)c1nnc(NC(=O)C23CC(c4cn(CCNC(=O)[C@@H]5CN(C(=O)CN6CCN(CC(=O)O)CCN(CC(=O)O)CCN(CC(=O)O)CC6)CCN5C(=O)C[C@H](NC(=O)C[C@H](NC(=O)c5n[nH]nc5C(F)(F)F)C(=O)O)C(=O)O)nn4)(C2)C3)s1.[Lu+3] [Compound 109.28]
Kd [1, 3]: 1 to 2.5 nM | Kd [2, 4]: < 1 nM

CC(CCCC(=O)N1CCC(C(=O)O)(C(=O)NCC(=O)N2CCN(C(=O)CN3CCN(CC(=O)O)CCN(CC(=O)O)CCN(CC(=O)O)CC3)C[C@H]2C(=O)NCCn2cc(C34CCC(C(=O)Nc5nnc(S(N)(=O)=O)s5)(CC3)CC4)nn2)CC1)(c1ccc(O)cc1)c1ccc(O)cc1.[Lu+3] [Compound 107.9]
Kd [1, 3]: 1 to 2.5 nM | Kd [2, 4]: < 1 nM

CC(CCCC(=O)N1CCC(C(=O)O)(C(=O)NCC(=O)N2CCN(C(=O)CN3CCN(CC(=O)O)CCN(CC(=O)O)CCN(CC(=O)O)CC3)C[C@H]2C(=O)NCCn2cc(C34CC(C(=O)Nc5nnc(S(N)(=O)=O)s5)(C3)C4)nn2)CC1)(c1ccc(O)cc1)c1ccc(O)cc1.[Lu+3] [Compound 112.18]
Kd [1, 3]: > 10 nM | Kd [2, 4]: 1 to 2.5 nM

CC(CCC(=O)N[C@@H](CC(=O)N[C@@H](CCC(=O)N1CCN(C(=O)CN2CCN(CC(=O)O)CCN(CC(=O)O)CCN(CC(=O)O)CC2)C[C@@H]1Cn1cc(C23CC(C(=O)Nc4nnc(S(N)(=O)=O)s4)(C2)C3)nn1)C(=O)O)C(=O)O)(c1ccc(O)cc1)c1ccc(O)cc1.[Lu+3] [Compound 107.14]
Kd [1, 3]: < 1 nM | Kd [2, 4]: < 1 nM

CC(CCCC(=O)N1CCC(C(N)=O)(C(=O)NCC(=O)N2CCN(C(=O)CCOCCOCCOCCOCCOCCOCCOCCOCCNC(=O)CN3CCN(CC(=O)O)CCN(CC(=O)O)CCN(CC(=O)O)CC3)C[C@H]2C(=O)NCCn2cc(C34CC(C(=O)Nc5nnc(S(N)(=O)=O)s5)(C3)C4)nn2)CC1)(c1ccc(O)cc1)c1ccc(O)cc1.[Lu+3] [Compound 129.1]
Kd [1, 3]: > 10 nM | Kd [2, 4]: < 1 nM

NS(=O)(=O)c1nnc(NC(=O)C23CC(c4cn(CCNC(=O)[C@@H]5CN(C(=O)CN6CCN(CC(=O)O)CCN(CC(=O)O)CCN(CC(=O)O)CC6)CCN5C(=O)C[C@H](NC(=O)C[C@H](NC(=O)CCc5ccc(O)cc5)C(=O)O)C(=O)O)nn4)(C2)C3)s1.[Lu+3] [Compound 109.5]
Kd [1, 3]: 2.5 to 10 nM | Kd [2, 4]: 1 to 2.5 nM
